pIC50: −log10 of the molar value.
Legend:
[1] = target: T1, NAD(P)H dehydrogenase [quinone] 1 (Homo sapiens, UniProt P15559)
Description: Inhibition of human recombinant NQO1

[2] = target: T1, NAD(P)H dehydrogenase [quinone] 1; remark: listed apart in the source
Description: Inhibition of human recombinant NQO1 in presence of BSA

MIA PaCa-2 [3] = test: Cytotoxicity against human MIAPaCa2 cells assessed as reduction in cell number after 24 hrs by MTT assay; format: functional, cell-based; details: MIA PaCa-2, 24 h
MIA PaCa-2 [4] = test: Cytotoxicity against human MIAPaCa2 cells assessed as reduction in cell number after 96 hrs by MTT assay; format: functional, cell-based; details: MIA PaCa-2, 96 h
HCT-116 [5] = test: Cytotoxicity against human HCT116 cells assessed as reduction in cell number after 24 hrs by MTT assay; format: functional, cell-based; details: HCT-116, 24 h
HCT-116 [6] = test: Cytotoxicity against human HCT116 cells assessed as reduction in cell number after 96 hrs by MTT assay; format: functional, cell-based; details: HCT-116, 96 h

T1 sequence (P15559 whole entry): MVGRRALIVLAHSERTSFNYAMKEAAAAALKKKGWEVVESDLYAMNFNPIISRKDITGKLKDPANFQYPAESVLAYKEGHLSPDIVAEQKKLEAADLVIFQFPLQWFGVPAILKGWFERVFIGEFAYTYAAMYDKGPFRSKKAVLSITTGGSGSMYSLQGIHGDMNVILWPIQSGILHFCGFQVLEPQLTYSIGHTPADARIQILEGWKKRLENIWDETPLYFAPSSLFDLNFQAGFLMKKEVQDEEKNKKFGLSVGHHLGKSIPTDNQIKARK

| pIC50 [1] | pIC50 [2] | SMILES | pIC50 (MIA PaCa-2 [3]) | pIC50 (MIA PaCa-2 [4]) | pIC50 (HCT-116 [5]) | pIC50 (HCT-116 [6]) |
| --- | --- | --- | --- | --- | --- | --- |
|  |  | Cc1cc2oc(=O)c(Cc3cccc4ccccc34)c(O)c2cc1C | < 3.40 | 3.73 | 3.80 | 4.25 |
| 7.85 | 5.26 | Cc1ccc2oc(=O)c(Cc3c(O)c4cc(C)ccc4oc3=O)c(O)c2c1 |  |  |  |  |
|  |  | COc1ccc2c(O)c(Cc3c(O)c4ccc(OC)cc4oc3=O)c(=O)oc2c1 | 3.35 | 3.52 | < 3.40 | 3.73 |
|  |  | Cc1ccc2c(O)c(Cc3c(O)c4ccc(C)c(C)c4oc3=O)c(=O)oc2c1C | 3.44 | 3.92 | 3.75 | 4.46 |
|  |  | COc1cc2oc(=O)c(Cc3c(O)c4cc(OC)c(OC)cc4oc3=O)c(O)c2cc1OC | < 3.40 | < 3.40 | < 3.40 | < 3.40 |
|  |  | Cc1cc2oc(=O)c(Cc3ccc4ccccc4c3)c(O)c2cc1C | 3.41 | 3.79 | 3.68 | 3.74 |
|  |  | Cc1cc2oc(=O)c(Cc3c(O)c4cc(C)c(C)cc4oc3=O)c(O)c2cc1C | 3.67 | 3.97 | 3.70 | 4.46 |
|  |  | Cc1ccc(Cc2c(O)c3cc(C)c(C)cc3oc2=O)cc1C | < 3.40 | 3.39 | < 3.40 | 3.75 |
|  |  | COc1cccc2oc(=O)c(Cc3c(O)c4c(OC)cccc4oc3=O)c(O)c12 | 3.41 | 3.46 | < 3.40 | 4.10 |
| 8.05 | 5.20 | O=c1oc2ccc(Cl)cc2c(O)c1Cc1c(O)c2cc(Cl)ccc2oc1=O |  |  |  |  |
|  |  | Cc1cc2oc(=O)c(Cc3ccccc3)c(O)c2cc1C | < 3.40 | 3.57 | < 3.40 | 3.75 |
| 7.96 | 5.48 | COc1ccc2oc(=O)c(Cc3c(O)c4cc(OC)ccc4oc3=O)c(O)c2c1 | 3.52 | 3.39 | 3.71 | 4.32 |
|  |  | O=c1oc2ccccc2c(O)c1Cc1c(O)c2ccccc2oc1=O [DICUMAROL] | 4.05 | 4.28 | 3.99 | 4.72 |

| SMILES | pIC50 [1] | pIC50 [2] | pIC50 (MIA PaCa-2 [3]) | pIC50 (MIA PaCa-2 [4]) | pIC50 (HCT-116 [5]) | pIC50 (HCT-116 [6]) |
| --- | --- | --- | --- | --- | --- | --- |
| CCCC(c1c(O)c2ccccc2oc1=O)c1c(O)c2ccccc2oc1=O | 6.23 | 5.27 |  |  |  |  |
| O=c1oc2ccccc2c(O)c1Cc1ccccc1 | 6.84 | 5.49 |  |  |  |  |
